# Results published in paper PMC10931776, “Modes of Interactions with DNA/HSA Biomolecules and Comparative Cytotoxic Studies of Newly Synthesized Mononuclear Zinc(II) and Heteronuclear Platinum(II)/Zinc(II) Complexes toward Colorectal Cancer Cells” (International Journal of Molecular Sciences, 2024).
# How the values were obtained:
# [1] = tested on: CT-DNA; assay: Ethidium bromide/CT-DNA fluorescence quenching (EB displacement); type: binding; conditions: EB/CT-DNA 1:1, 5 µM, PBS pH 7.4, room temperature, λex 527 nm, λem 612 nm
# Description: Fluorescent spectroscopy allows the determination of the intercalation potential of compounds. Intercalation involves planar aromatic molecules binding between the base pairs of DNA chains, causing them to elongate. Ethidium bromide (EB) is commonly used as a DNA intercalator and produces high levels of fluorescent emissions at 612 nm when intercalating between DNA strands. However, the addition of compounds that can intercalate between DNA strands and suppress the effects of EB will reduce fluorescent emissions. If a complex is able to replace EB, fluorescence reduction will occur, indicating the complex’s ability to bind intercalatively. Figure 3 and Figures S10–S13 show the results of fluorescence titrations in the presence of intercalator EB, where the emission intensity of a constant CT-DNA/EB solution concentration of 5 µM was monitored with increasing complex concentration up to a ratio of 5.
# To determine whether the complex could displace EB from the CT-DNA-EB complex, the interactions of the complex with CT-DNA were examined in the presence of EB. The CT-DNA-EB solution was formed by combining EB and CT-DNA solutions with a concentration of 5 μM at a pH of 7.4. The impact of the complex binding to the CT-DNA was measured by analyzing the fluorescence emission spectrum after the addition of the examined complexes solution in increasing concentration, Figure 3.
# The binding affinity of the complexes C1–C5 to CT-DNA via intercalation was determined using fluorescence spectroscopy. All measurements were conducted at room temperature in 0.01 M PBS with a pH of 7.4. Fluorescence measurements were performed by adding increasing complex concentrations (0–50 μM) to a CT-DNA and EB solution. Before each measurement, the system was shaken at room temperature. The fluorescence intensity was measured with the wavelength of excitation at 527 nm and the wavelength of emission at 612 nm. The width of the excitation and emission slits (10 nm) and scan rate were maintained at a constant rate. The emission of the solution was recorded in the range of 550 to 750 nm. The Stern–Volmer constants, Ksv, were determined by Equation (2). I0/I = 1 + Ksv[Q](2) [Q] is the concentration of the complex, I0 and I represent emission intensities in the absence and presence of complex, and Ksv is the Stern–Volmer constant obtained from the slope of the plot of I0/I vs. [Q] [25, 26, 27, 28].
# [2] = tested on: mouse mesenchymal stem cells (mMSC); assay: MTT cytotoxicity assay, mMSC; type: cell-based; conditions: 48 h
# Method: (§1) The in vitro cytotoxicity of newly synthesized mono- and heteronuclear platinum(II)/and zinc(II) complexes, featuring a 4,4′,4″-tri-tert-butyl-2,2′:6′,2″-terpyridine ligand (designated as C1–C5), was assessed using MTT assay procedures. This evaluation targeted various cell lines: mouse colorectal carcinoma (CT26), human colorectal carcinoma (HCT116 and SW480), and non-cancerous mouse mesenchymal stem cells (mMSC). These cell lines were exposed to synthesized complexes for 48 h, with concentrations ranging from 1.17 to 150 μM.
# In the context of developing low-toxicity drugs, it is imperative to evaluate the antiproliferative activity against normal cells. The in vitro toxicity of the tested complexes toward normal mouse mesenchymal stem cells (mMSC) was examined. […] These findings indicate the possibility of enhanced in vivo tolerance for this complex.
# (§2) In our study, various cell lines were cultured, including mouse colorectal carcinoma (CT26), human colorectal carcinoma (HCT116 and SW480) obtained from ATCC, USA, and mouse mesenchymal stem cells (mMSC, Gibco), New York, NY, USA). These cell lines were consistently maintained in complete Dulbecco’s Modified Eagle Medium (DMEM) supplemented with 10% fetal bovine serum (FBS) (Sigma Aldrich, St. Louis, MO, USA), 100 IU/mL penicillin, and 100 μg/mL streptomycin antibiotics (Invitrogen, Carlsbad, CA, USA). The cultures were incubated at 37 °C in a humidified atmosphere of 5% carbon dioxide (CO2). […] The viability and count of the cells were determined using Trypan blue staining, ensuring the accuracy and reliability of the experimental outcomes.
# (§3) The cytotoxic effects of five newly synthesized complexes, alongside cisplatin, were assessed through the MTT assay method, in line with previously established protocols. During the exponential growth phase, cells were collected from culture flasks, counted, and then seeded in 96-well culture plates at a density of 5·10^3 cells per well. Subsequent treatment involved exposing these cells to varying concentrations of the newly synthesized complexes and cisplatin (ranging from 1.17 to 150 μM) for a duration of 48 h, with fresh complete medium serving as the control. The results were quantified relative to the control (untreated cells), providing a comparative measure of cytotoxicity. Additionally, IC50 values, representing the concentration required to inhibit 50% of the cell viability, were calculated using Microsoft Office Excel 2010. Lastly, the data were presented as percentages of viable cells in accordance with the methodology outlined in the referenced study, facilitating a comprehensive understanding of the anticancer potential of these compounds.
# [3] = tested on: mouse colorectal carcinoma (CT26); assay: MTT cytotoxicity assay, CT26; type: cell-based; conditions: 48 h
# Method: as §1, §2, §3
# [4] = tested on: CT26 cells; assay: Cell cycle analysis by flow cytometry; type: cell-based, mouse; conditions: CT26, 24 h treatment, vs untreated
# Method: The study of cell cycle arrest in CT26 carcinoma cells treated with the potent compound C1 was conducted to elucidate the potential cellular mechanisms underlying its anticancer effect. For this purpose, CT26 cells were subjected to 24 h treatment with the C1 complex. […] This arrest is likely attributable to molecular alterations within the cancer cells post-treatment. […] This reduction in the S phase, where DNA replication occurs, further indicates the efficacy of the C1 complex in hindering cell cycle progression. […] The induction of cell cycle arrest by the C1 compound potentially curtails the growth and dissemination of carcinoma cells, underscoring its efficacy as a promising anticancer agent.
# Our research progressed to explore the potential effects of the newly synthesized C1 complex on the cell cycle dynamics of CT26 tumor cells. […] Each sample tube was then treated with a specific antibody targeting Ki67 (eBioscience, San Diego, CA, USA)/1 μL of Vybrant® DyeCycleTM Ruby stain (Thermo Fisher Scientific Inc., Waltham, MA, USAand subsequently analyzed using a FACS Calibur flow cytometer (BD Biosciences, San Jose, CA, USA). A minimum of 15,000 events per sample were examined. Data analysis was conducted using the FlowJo vX.0.7 software, allowing for a detailed assessment of the cell cycle phases and any impact induced by the C1 complex.
substance,measurement,setting,value
[ZnCl2(terpy^t^Bu)] [C1],"Stern–Volmer constant Ksv, CT-DNA",[1],2.2 ± 0.1 10^4 M^–1
same,"Cytotoxic effect on mMSC compared to cancer cells (HCT116, SW480, CT26)",[2]; concentrations 1.17 to 18.75 μM,lower cytotoxic effect
same,IC50,"[2]; non-cancerous cells, read-out: IC50 ± SEM, mMSCs",56.7 ± 6.93 µM
same,"Selectivity Index (IC50 mMSC/IC50), CT26",[3],1.3
same,IC50,"[3]; read-out: IC50 ± SEM, CT26",44.7 ± 58.7 µM
same,"Cell cycle distribution, G0/G1 phase",[4],G0/G1 phase arrest
same,"Cell cycle distribution, synthesis (S) phase",[4],notable decrease
